Data: publication PMC9410420, “Novel Labdane Diterpenes-Based Synthetic Derivatives: Identification of a Bifunctional Vasodilator That Inhibits CaV1.2 and Stimulates KCa1.1 Channels” (Marine Drugs, 2022)
Like-named read-outs stand apart in the source and are kept apart here.

Tests used:
[1] = molecular target: T1, CaV1.2 channel (Rattus norvegicus, UniProt P22002); assay: Whole-cell patch-clamp, Ba2+ current through CaV1.2 channels (IBa1.2) in rat tail artery myocytes; format: cell-based; details: pulses to 10 mV from Vh −50 mV
T1 construct: smooth muscle cells were freshly isolated; endogenous in cells; host or cells: freshly isolated rat tail main artery smooth muscle cells
T1 sequence (P22002 whole entry): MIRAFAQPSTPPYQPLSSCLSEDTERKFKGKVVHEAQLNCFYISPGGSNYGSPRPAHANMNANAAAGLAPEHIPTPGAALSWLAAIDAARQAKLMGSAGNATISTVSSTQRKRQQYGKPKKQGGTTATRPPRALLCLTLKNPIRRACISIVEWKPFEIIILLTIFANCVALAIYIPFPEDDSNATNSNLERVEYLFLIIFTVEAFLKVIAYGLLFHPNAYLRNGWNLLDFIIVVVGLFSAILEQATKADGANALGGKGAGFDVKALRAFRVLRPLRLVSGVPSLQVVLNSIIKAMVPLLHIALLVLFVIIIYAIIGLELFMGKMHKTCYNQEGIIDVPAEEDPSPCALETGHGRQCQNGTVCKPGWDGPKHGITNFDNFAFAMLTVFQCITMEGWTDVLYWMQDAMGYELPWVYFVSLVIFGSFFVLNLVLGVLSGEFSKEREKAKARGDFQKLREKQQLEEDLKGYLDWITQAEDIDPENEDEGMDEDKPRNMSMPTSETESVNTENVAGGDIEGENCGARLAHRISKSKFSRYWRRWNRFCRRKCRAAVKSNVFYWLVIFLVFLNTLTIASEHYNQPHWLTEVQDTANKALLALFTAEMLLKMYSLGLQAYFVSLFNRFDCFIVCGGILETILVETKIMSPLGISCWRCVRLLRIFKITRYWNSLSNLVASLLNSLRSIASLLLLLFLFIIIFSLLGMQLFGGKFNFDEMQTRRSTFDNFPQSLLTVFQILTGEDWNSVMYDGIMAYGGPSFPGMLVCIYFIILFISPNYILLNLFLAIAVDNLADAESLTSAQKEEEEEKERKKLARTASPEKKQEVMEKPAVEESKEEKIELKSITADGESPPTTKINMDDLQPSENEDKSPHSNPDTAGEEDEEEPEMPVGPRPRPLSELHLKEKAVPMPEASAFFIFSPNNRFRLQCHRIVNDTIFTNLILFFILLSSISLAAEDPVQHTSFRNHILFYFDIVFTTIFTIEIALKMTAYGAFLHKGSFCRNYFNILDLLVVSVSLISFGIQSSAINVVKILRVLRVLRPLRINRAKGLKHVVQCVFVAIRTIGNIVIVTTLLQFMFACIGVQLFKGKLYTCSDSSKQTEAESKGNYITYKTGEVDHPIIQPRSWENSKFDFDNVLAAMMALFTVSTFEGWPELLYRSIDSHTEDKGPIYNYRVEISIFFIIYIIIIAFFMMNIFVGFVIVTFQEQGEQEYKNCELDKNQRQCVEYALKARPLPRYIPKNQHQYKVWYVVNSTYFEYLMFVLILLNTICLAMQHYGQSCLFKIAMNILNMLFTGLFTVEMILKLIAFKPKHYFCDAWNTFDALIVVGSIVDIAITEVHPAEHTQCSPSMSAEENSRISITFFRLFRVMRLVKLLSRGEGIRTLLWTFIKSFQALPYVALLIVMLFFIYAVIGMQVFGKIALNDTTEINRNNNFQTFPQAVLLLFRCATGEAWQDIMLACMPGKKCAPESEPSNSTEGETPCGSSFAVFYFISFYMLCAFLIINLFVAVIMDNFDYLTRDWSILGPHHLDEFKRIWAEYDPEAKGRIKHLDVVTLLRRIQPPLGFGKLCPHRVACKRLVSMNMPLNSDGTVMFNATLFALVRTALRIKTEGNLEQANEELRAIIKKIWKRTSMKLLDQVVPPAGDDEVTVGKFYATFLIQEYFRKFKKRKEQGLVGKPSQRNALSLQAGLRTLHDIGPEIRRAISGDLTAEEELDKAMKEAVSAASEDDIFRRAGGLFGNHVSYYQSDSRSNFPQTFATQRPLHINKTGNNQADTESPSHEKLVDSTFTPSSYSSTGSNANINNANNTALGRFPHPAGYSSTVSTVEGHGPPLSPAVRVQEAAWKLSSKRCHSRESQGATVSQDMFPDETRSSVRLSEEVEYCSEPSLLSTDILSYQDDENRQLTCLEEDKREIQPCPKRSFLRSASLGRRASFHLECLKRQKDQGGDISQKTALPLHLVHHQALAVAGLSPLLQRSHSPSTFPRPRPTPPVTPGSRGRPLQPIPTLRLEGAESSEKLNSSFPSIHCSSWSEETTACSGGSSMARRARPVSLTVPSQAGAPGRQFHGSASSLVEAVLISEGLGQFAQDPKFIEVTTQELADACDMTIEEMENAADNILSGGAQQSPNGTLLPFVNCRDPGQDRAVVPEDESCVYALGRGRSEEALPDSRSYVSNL
T1 sequence (P54290 25-944 partner limits assumed): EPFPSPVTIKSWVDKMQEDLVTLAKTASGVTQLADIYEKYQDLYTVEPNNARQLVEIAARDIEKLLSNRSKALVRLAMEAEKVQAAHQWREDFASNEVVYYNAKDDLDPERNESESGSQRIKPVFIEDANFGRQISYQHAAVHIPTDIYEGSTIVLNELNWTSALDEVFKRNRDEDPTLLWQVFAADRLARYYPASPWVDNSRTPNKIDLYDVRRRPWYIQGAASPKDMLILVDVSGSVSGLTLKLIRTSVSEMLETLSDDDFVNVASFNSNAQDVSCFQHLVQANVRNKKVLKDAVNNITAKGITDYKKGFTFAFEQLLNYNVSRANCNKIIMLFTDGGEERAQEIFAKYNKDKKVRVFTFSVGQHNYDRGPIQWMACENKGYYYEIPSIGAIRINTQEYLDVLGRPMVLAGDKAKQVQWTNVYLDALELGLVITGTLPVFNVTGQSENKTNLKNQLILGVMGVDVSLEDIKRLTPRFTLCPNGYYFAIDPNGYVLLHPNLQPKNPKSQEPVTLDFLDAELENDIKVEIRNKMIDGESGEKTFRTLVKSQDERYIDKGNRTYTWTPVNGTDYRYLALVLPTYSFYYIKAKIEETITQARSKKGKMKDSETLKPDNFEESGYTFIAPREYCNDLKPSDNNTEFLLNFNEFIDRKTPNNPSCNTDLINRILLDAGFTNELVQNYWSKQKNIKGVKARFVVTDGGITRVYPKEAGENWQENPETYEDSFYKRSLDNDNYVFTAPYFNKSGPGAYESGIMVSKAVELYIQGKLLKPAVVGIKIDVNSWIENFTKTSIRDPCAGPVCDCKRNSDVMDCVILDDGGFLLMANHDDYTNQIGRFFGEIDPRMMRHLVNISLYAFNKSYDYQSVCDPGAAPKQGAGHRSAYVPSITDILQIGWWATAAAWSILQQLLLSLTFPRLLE
T1 sequence (P54290 945-1091 partner limits assumed): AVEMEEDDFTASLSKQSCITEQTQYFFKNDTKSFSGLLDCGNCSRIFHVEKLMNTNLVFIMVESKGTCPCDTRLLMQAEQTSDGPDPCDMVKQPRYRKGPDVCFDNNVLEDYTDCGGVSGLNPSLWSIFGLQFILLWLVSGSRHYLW
T1 sequence (P54287 whole entry partner): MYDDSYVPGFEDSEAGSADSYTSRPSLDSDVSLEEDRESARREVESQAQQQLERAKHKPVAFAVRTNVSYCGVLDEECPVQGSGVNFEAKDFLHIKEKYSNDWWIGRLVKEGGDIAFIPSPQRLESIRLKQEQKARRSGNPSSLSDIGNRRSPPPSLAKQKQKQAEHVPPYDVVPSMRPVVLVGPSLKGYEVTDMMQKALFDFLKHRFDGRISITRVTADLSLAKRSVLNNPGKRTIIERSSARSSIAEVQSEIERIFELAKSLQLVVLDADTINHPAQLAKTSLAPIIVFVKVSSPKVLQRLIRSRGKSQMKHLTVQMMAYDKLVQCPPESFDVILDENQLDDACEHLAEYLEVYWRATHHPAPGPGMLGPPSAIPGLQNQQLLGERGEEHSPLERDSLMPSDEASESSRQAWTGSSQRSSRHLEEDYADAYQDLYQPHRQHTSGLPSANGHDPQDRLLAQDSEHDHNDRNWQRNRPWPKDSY
Protocol: The tail main artery was dissected free of its connective tissue, and smooth muscle cells were freshly isolated under the following conditions. […] Cells stored in 0.05 mM Ca^2+ external solution containing 20 mM taurine and 0.5 mg/mL BSA at 4 °C under normal air were used for experiments within two days after isolation.
An Axopatch 200B patch-clamp amplifier (Molecular Devices Corporation, Sunnyvale, CA, USA) was used to generate and apply voltage pulses to the clamped cells and record the corresponding membrane currents. Recording electrodes were pulled from borosilicate glass capillaries (WPI, Berlin, Germany) and fire-polished to obtain a pipette resistance of 2–4 MΩ, when filled with an internal solution. At the beginning of each experiment, the junction potential between the pipette and bath solution was electronically adjusted to zero. […] Electrophysiological responses were tested at room temperature (20–22 °C).
The conventional whole-cell patch-clamp method was employed to voltage-clamp smooth muscle cells. The internal solution consisted of (in mM) 100 CsCl, 10 HEPES, 11 EGTA, 2 MgCl2, 1 CaCl2 (pCa 8.4), 5 Na pyruvate, 5 succinic acid, 5 oxaloacetic acid, 3 Na2ATP, and 5 phosphocreatine; pH was adjusted to 7.4 with CsOH. IBa1.2 was recorded in an external solution containing 30 mM TEA and 5 mM Ba^2+. […] Data were collected once the current amplitude had been stabilized (usually 7–10 min after the whole-cell configuration had been obtained).

[2] = tested on: rat aorta rings; assay: Phenylephrine-induced contraction of rat aorta rings (pharmaco-mechanical coupling); details: Rattus norvegicus, 0.3 µM phenylephrine
Protocol: The abdominal aorta was gently cleaned of adipose and connective tissues and cut into 3-mm wide rings. These were mounted in organ baths between two parallel, L-shaped, stainless-steel hooks, with one fixed in place and the other connected to an isometric transducer. Rings were allowed to equilibrate for 60 min in modified Krebs-Henseleit solution (composition in mM: 118 NaCl, 4.75 KCl, 1.19 KH2PO4, 1.19 MgSO4, 25 NaHCO3, 11.5 glucose, 2.5 CaCl2, gassed with a 95% O2–5% CO2 gas mixture to create a pH of 7.4) under a passive tension of 1 g. During this equilibration period, the solution was changed every 15 min. Isometric tension was recorded using a digital PowerLab data acquisition system (PowerLab 8/30; ADInstruments). Ring viability was assessed by recording the response to 0.3 µM phenylephrine and 60 mM KCl. Where needed, the endothelium was removed by gently rubbing the lumen of the ring with a forceps tip. This procedure was validated by adding 10 µM acetylcholine at the plateau of phenylephrine-induced contraction; a relaxation greater than 70% or less than 10% denoted the presence or absence of functional endothelium, respectively.
Aorta rings were pre-contracted pharmaco-mechanically using 0.3 µM phenylephrine and electromechanically using 25–30 mM or 60 mM KCl. Once the contraction reached a plateau, the compound was added cumulatively into the organ bath. […] The response was calculated as the percentage of phenylephrine- or KCl-induced contraction (taken as 100%).

[3] = molecular target: T1, CaV1.2 channel; assay: Voltage dependence of CaV1.2 channel steady-state activation and inactivation in rat tail artery myocytes; format: cell-based; details: for Slope inact (slope factor of inactivation) / V50 inact (50% inactivation potential): Vh −80 mV
Source text: An Axopatch 200B patch-clamp amplifier (Molecular Devices Corporation, Sunnyvale, CA, USA) was used to generate and apply voltage pulses to the clamped cells and record the corresponding membrane currents. Recording electrodes were pulled from borosilicate glass capillaries (WPI, Berlin, Germany) and fire-polished to obtain a pipette resistance of 2–4 MΩ, when filled with an internal solution. At the beginning of each experiment, the junction potential between the pipette and bath solution was electronically adjusted to zero. After compensation for whole-cell capacitance and series resistance (between 70% and 75%), current signals were low-pass filtered at 1 kHz and digitized at 3 kHz, before being stored on a computer hard disk. Electrophysiological responses were tested at room temperature (20–22 °C).
Cells were continuously superfused with an external solution containing 0.1 mM Ca^2+ and 30 mM TEA using a peristaltic pump (LKB 2132, Bromma, Sweden) at a flow rate of 400 µL/min. The conventional whole-cell patch-clamp method was employed to voltage-clamp smooth muscle cells. The internal solution consisted of (in mM) 100 CsCl, 10 HEPES, 11 EGTA, 2 MgCl2, 1 CaCl2 (pCa 8.4), 5 Na pyruvate, 5 succinic acid, 5 oxaloacetic acid, 3 Na2ATP, and 5 phosphocreatine; pH was adjusted to 7.4 with CsOH. IBa1.2 was recorded in an external solution containing 30 mM TEA and 5 mM Ba^2+. The current was elicited with 250-ms clamp pulses (0.067 Hz) to 10 mV, from a Vh of −50 mV. Data were collected once the current amplitude had been stabilized (usually 7–10 min after the whole-cell configuration had been obtained).
Steady-state activation curves were derived from the current–voltage relationships. Conductance (G) was calculated from the equation G = IBa1.2/(Em − Erev), where: IBa1.2 is the peak current elicited by depolarizing test pulses between −50 mV and 40 mV from a Vh of −50 mV; Em is the membrane potential; and Erev is the reversal potential (estimated from the extrapolated current-voltage curves in Figure 2). Gmax is the maximal Ba^2+ conductance (calculated at potentials ≤40 mV). The G/Gmax ratio was plotted against the membrane potential and fitted to the Boltzmann equation [40]. Steady-state inactivation curves were obtained using a double-pulse protocol. Once various levels of the conditioning potential had been applied for 5 s, followed by a short (5-ms) return to the Vh of −80 mV, a test pulse (250 ms) to 10 mV was delivered to evoke the current. The delay between the conditioning potential and the test pulse allowed the full or near-complete deactivation of the channels, simultaneously avoiding partial recovery from inactivation. K^+ currents were blocked with 30 mM TEA in the external solution and Cs^+ in the internal solution. […] The osmolarity of the 30 mM TEA- and 5 mM Ba^2+-containing external solution (320 mosmol, adjusted with NaCl if required) and that of the internal solution (290 mosmol) were measured with an osmometer (Osmostat OM 6020, Menarini Diagnostics, Florence, Italy).

CC1(C)CCC[C@]2(C)[C@@H](CC(=O)Nc3ccccc3-n3cccc3)[C@](C)(O)CC[C@@H]12 [Compound 7]
Emax ([1]; read-out: Emax (percent maximal inhibition), IBa1.2): 90.5 ± 5.8%
IC50 ([1]; read-out: IC50, IBa1.2 inhibition): 13.2 ± 5.4 µM
Emax ([2]; endothelium-denuded rat aorta rings, read-out: Emax (percent maximal inhibition), phenylephrine-induced contraction, −Endothelium): ≤ 60%
Emax ([2]; endothelium-intact rat aorta rings, read-out: Emax (percent maximal inhibition), phenylephrine-induced contraction, +Endothelium): 8.6 ± 9.3%
Slope act (slope factor of activation) ([3]; 10 µM compound): 8.36 ± 0.75
Slope inact (slope factor of inactivation) ([3]; 10 µM compound): −7.53 ± 0.24
V50 inact (50% inactivation potential) ([3]; 10 µM compound): −30.24 ± 1.29 mV
Ba2+ window current, potential of the peak ([3]; 10 µM, control peaked at −10 mV): about −15 mV
Ba2+ window current, relative amplitude at peak ([3]; 10 µM, control relative amplitude 0.078): 0.021
Slope inact (slope factor of inactivation) ([3]; 30 µM compound): −7.70 ± 0.51
V50 inact (50% inactivation potential) ([3]; 30 µM compound): −38.29 ± 2.00 mV
